Results taken from patent US20230365526A1, “PYRIDAZINE DERIVATIVES FOR MODULATING NUCLEIC ACID SPLICING” (REMIX THERAPEUTICS INC., priority 2020, published 2023).
Counter-ions that a name gives are not always drawn. Like-named read-outs stand apart in the source and are kept apart here.

Columns and labels:
Assay type in all cases: cell-based
HTT = assay: Gene panel canonical junction RT-qPCR assay: HTT; details: read-out: HTT (IC50, decrease in CJ mRNA levels)
Experimental: (§1) Compounds described herein were used to modulate RNA transcript abundance in cells. The expression of a target mRNA was measured by detecting the formation of an exon-exon junction in the canonical transcript (CJ). A compound mediated exon-inclusion event was detected by observing an increase in formation of a new junction with an alternative exon (AJ). Real-time qPCR assays were used to detect these splicing switches and interrogate the potency of various compounds towards different target genes. A high-throughput real time quantitative PCR (RT-qPCR) assay was developed to measure these two isoforms of the mRNA (CJ and AJ) for an exemplary gene, HTT, together with a control housekeeping gene, GAPDH or GUSB or PPIA, used for normalization. Briefly, the A673 or K562 cell line was treated with various compounds described herein (e.g., compounds of Formula (I)). After treatment, the levels of the HTT mRNA targets were determined from each sample of cell lysate by cDNA synthesis followed by qPCR.
(§2) The A673 cell line was cultured in DMEM with 10% FBS. Cells were diluted with full growth media and plated in a 96-well plate (15,000 cells in 100 ul media per well). The plate was incubated at 37° C. with 5% CO2 for 24 hours to allow cells to adhere. An 11-point 3-fold serial dilution of the compounds was made in DMSO then diluted in media in an intermediate plate. Compounds were transferred from the intermediate plate to the cell plate with the top dose at a final concentration of 10 uM in the well. Final DMSO concentration was kept at or below 0.25%. The cell plate was returned to the incubator at 37° C. with 5% CO2 for an additional 24 hours.
(§3) The K562 cell line was cultured in IMDM with 10% FBS. For K562, cells were diluted with full growth media and plated in either a 96-well plate (50,000 cells in 50 uL media per well) or a 384-well plate (8,000-40,000 cells in 45 uL media per well). An 11-point 3-fold serial dilution of the compounds were made in DMSO then diluted in media in an intermediate plate. Compound was transferred from the intermediate plate to the cell plate with the top dose at a final concentration of 10 uM in the well. Final DMSO concentration was kept at or below 0.25%. Final volume was 100 uL for 96-well plate and 50 uL for 384-well plate. The cell plate was then placed in an incubator at 37° C. with 5% CO2 for 24 hours.
(§4) The cells were then gently washed with 50 uL-100 uL cold PBS before proceeding to addition of lysis buffer. 30 uL-50 uL of room temperature lysis buffer with DNAse I (and optionally RNAsin) was added to each well. Cells were shaken/mixed thoroughly at room temperature for 5-10 minutes for lysis to take place and then 3 uL-5 uL of room temperature stop solution was added and wells were shaken/mixed again. After 2-5 minutes, the cell lysate plate was transferred to ice for RT-qPCR reaction setup. The lysates could also be frozen at −80° C. for later use.
(§5) In some cases, a direct lysis buffer was used. An appropriate volume of 3×lysis buffer (10 mM Tris, 150 mM NaCl, 1.5%-2.5% Igepal and 0.1-1 U/uL RNAsin, pH 7.4) was directly added to either K562 or A673 cells in media and mixed by pipetting 3 times. The plates were then incubated at room temperature with shaking/rocking for 20-50 minutes to allow for lysis to take place. After this time, the cell lysate plate was transferred to ice to set up for the RT-qPCR reactions. The lysates could also be frozen at −80° C. for later use.
(§6) To set up 10 uL RT-qPCR reactions, cell lysates were transferred to 384-well qPCR plates containing the master mix according to the table below. The plates were sealed, gently vortexed, and spun down before the run. The volumes were adjusted accordingly in some instances where the reaction was carried in 20 uL. The table below summarizes the components of the RT-qPCR reactions:
(§7) The RT-qPCR reaction was performed using a QuantStudio (ThermoFisher) under the following fast cycling conditions. […]

SMN2 = assay: Gene panel canonical junction RT-qPCR assay: SMN2; details: read-out: SMN2 (IC50, decrease in CJ mRNA levels)
Experimental: as §1, §2, §3, §4, §5, §6, §7

Target C = assay: Gene panel canonical junction RT-qPCR assay: Target C; details: read-out: Target C (IC50, decrease in CJ mRNA levels)
Experimental: as §1, §2, §3, §4, §5, §6, §7

HTT mRNA = assay: RT-qPCR splicing assay monitoring HTT canonical (CJ) and alternative (AJ) junction mRNA in A673 or K562 cells; details: 24 hours compound treatment, top dose 10 uM
Experimental: as §1
• Cells-to-CT 1-step kit: ThermoFisher A25602, Cells-to-CT lysis reagent: ThermoFisher 4391851C, TaqMan™ Fast Virus 1-Step Master Mix: ThermoFisher 4444436 • GAPDH: VIC-PL, ThermoFisher 4326317E (Assay: Hs99999905_m1)—used for K562/suspension cell lines • GUSB: VIC-PL, ThermoFisher 4326320E (Assay: Hs99999908_m1)—used for K562/suspension cell lines • PPIA: VIC-PL, ThermoFisher 4326316E (Assay: Hs99999904_m1)—used for A673/adherent cell lines
as §2, §3, §4
as §5, with “use. […]” for “use.”

[1] = decrease in CJ mRNA, read-out: HTT CJ AC50
[2] = increase in AJ mRNA, read-out: HTT AJ AC50

Compound	IC50 (HTT)	IC50 (SMN2)	IC50 (Target C)	AC50 (HTT mRNA; [1])	AC50 (HTT mRNA; [2])
COc1nc(-c2ccc(N(C)[C@@H]3C[C@H]4CC[C@@H](C3)N4)nn2)ncc1-c1cn[nH]c1 [Compound 207]	1000 to 10000 nM	1000 to 10000 nM	1000 to 10000 nM	1000 to 10000 nM	1000 to 10000 nM
COc1nc(-c2ccc(N(C)[C@@H]3C[C@H]4CC[C@@H](C3)N4)nn2)ccc1-c1cn[nH]c1 [Compound 133, (1R,3S,5S)—N-[6-[6-methoxy-5-(1H-pyrazol-4-yl)pyridin-2-yl]pyridazin-3-yl]-N-methyl-8-azabicyclo[3.2.1]octan-3-amine]	< 100 nM	< 100 nM	< 100 nM	< 100 nM	100 to 1000 nM
Cc1nc(-c2ccc(N(C)[C@@H]3C[C@H]4CC[C@@H](C3)N4)nn2)ccc1-c1cn[nH]c1 [Compound 171]	1000 to 10000 nM	100 to 1000 nM	1000 to 10000 nM	1000 to 10000 nM	1000 to 10000 nM
COc1nc(-c2ccc(N(C)[C@@H]3C[C@H]4CC[C@@H](C3)N4)nn2)ccc1-n1cccn1 [Compound 134, (1R,3S,5S)—N-[6-[6-methoxy-5-(pyrazol-1-yl)pyridin-2-yl]pyridazin-3-yl]-N-methyl-8-azabicyclo[3.2.1]octan-3-amine]	100 to 1000 nM	100 to 1000 nM	> 10000 nM	100 to 1000 nM	100 to 1000 nM
CN(c1ccc(-c2ccc(-n3cccn3)c(=O)[nH]2)nn1)[C@@H]1C[C@H]2CC[C@@H](C1)N2 [Compound 130, 6-[6-[(1R,3S,5S)-8-azabicyclo[3.2.1]octan-3-yl(methyl)amino]pyridazin-3-yl]-3-(pyrazol-1-yl)-1H-pyridin-2-one]	100 to 1000 nM	1000 to 10000 nM	< 100 nM	100 to 1000 nM	1000 to 10000 nM
COc1nc(-c2ccc(N(C)C3CC(C)(C)NC(C)(C)C3)nn2)ccc1-c1cn[nH]c1 [Compound 246, 6-[6-methoxy-5-(1H-pyrazol-4-yl)pyridin-2-yl]-N-methyl-N-(2,2,6,6-tetramethylpiperidin-4-yl)pyridazin-3-amine]	< 100 nM		100 to 1000 nM	< 100 nM	100 to 1000 nM
COc1nc(-c2ccc(N(C)[C@@H]3CCN[C@H](C)C3)nn2)ccc1-c1cn[nH]c1 [Compound 136, 6-[6-methoxy-5-(1H-pyrazol-4-yl)pyridin-2-yl]-N-methyl-N-[(2R,4R)-2-methylpiperidin-4-yl]pyridazin-3-amine]	1000 to 10000 nM	100 to 1000 nM		1000 to 10000 nM	1000 to 10000 nM
CN(c1ccc(-c2ccc(-c3cn[nH]c3)c(C(F)(F)F)n2)nn1)[C@@H]1C[C@H]2CC[C@@H](C1)N2 [Compound 236]	> 10000 nM		> 10000 nM	> 10000 nM	> 10000 nM
CN(c1ccc(-c2ccc(-c3cn[nH]c3)cn2)nn1)[C@@H]1C[C@H]2CC[C@@H](C1)N2 [Compound 217]	100 to 1000 nM	> 10000 nM	1000 to 10000 nM	100 to 1000 nM	100 to 1000 nM
CCOc1nc(-c2ccc(N(C)[C@@H]3C[C@H]4CC[C@@H](C3)N4)nn2)ccc1-c1cn[nH]c1 [Compound 261, (1R,3R,5S)—N-{6-[6-ethoxy-5-(1H-pyrazol-4-yl)pyridin-2-yl]pyridazin-3-yl}-N-methyl-8-azabicyclo[3.2.1]octan-3-amine]	< 100 nM		< 100 nM	< 100 nM	< 100 nM
COc1nc(-c2ccc(N(C)[C@@H]3C[C@H]4CC[C@@H](C3)N4)nn2)cnc1-c1cn[nH]c1 [Compound 260, (1R,3R,5S)—N-{6-[6-methoxy-5-(1H-pyrazol-4-yl)pyrazin-2-yl]pyridazin-3-yl}-N-methyl-8-azabicyclo [3.2.1] octan-3-amine hydrochloride]	< 100 nM		< 100 nM	100 to 1000 nM	100 to 1000 nM
COc1nc(-c2ccc(N(C)C3CC(C)(C)NC(C)(C)C3)nn2)ccc1-n1cccn1 [Compound 272, 6-[6-methoxy-5-(pyrazol-1-yl)pyridin-2-yl]-N-methyl-N-(2,2,6,6-tetramethylpiperidin-4-yl) pyridazin-3-amine]	1000 to 10000 nM		1000 to 10000 nM	100 to 1000 nM	100 to 1000 nM
COc1nc(-c2ccc(N(C)[C@@H]3C[C@H]4CC[C@@H](C3)N4)nn2)ccc1-c1cnn(C)c1 [Compound 287, (1R,3s,5S)-N-(6-(6-methoxy-5-(1-methyl-1H-pyrazol-4-yl)pyridin-2-yl)pyridazin-3-yl)-N-methyl-8-azabicyclo [3.2.1] octan-3-amine]	< 100 nM		< 100 nM	< 100 nM	100 to 1000 nM
COc1nc(-c2ccc(O[C@@H]3C[C@H]4CC[C@@H](C3)N4)nn2)ccc1-c1cn(C)nn1 [Compound 290, 3-({6-[6-methoxy-5-(1-methyl-1,2,3-triazol-4-yl)pyridin-2-yl]pyridazin-3-yl}oxy)-8-azabicyclo[3.2.1]octane]	100 to 1000 nM		1000 to 10000 nM	100 to 1000 nM	> 10000 nM
COc1cc(-c2ccc(N(C)[C@@H]3C[C@H]4CC[C@@H](C3)N4)nn2)ncc1-c1cn[nH]c1 [Compound 248]	> 10000 nM		> 10000 nM	> 10000 nM	> 10000 nM
COc1cc(-c2ccc(N(C)[C@@H]3C[C@H]4CC[C@@H](C3)N4)nn2)ccc1-c1cn[nH]c1 [Compound 208]	100 to 1000 nM	< 100 nM	100 to 1000 nM	100 to 1000 nM	100 to 1000 nM
COc1nc(-c2ccc(N(C)[C@@H]3C[C@H]4CC[C@@H](C3)N4)nn2)cc(F)c1-c1cn[nH]c1 [Compound 268, (exo)-N-{6-[4-fluoro-6-methoxy-5-(1H-pyrazol-4-yl)pyridin-2-yl]pyridazin-3-yl}-N-methyl-8-azabicyclo[3.2.1]octan-3-amine]	< 100 nM		< 100 nM	< 100 nM	< 100 nM
